Results reported in the NIST ThermoML archive (doi:10.1021/je400102p).
± gives the expanded uncertainty stated by the source.

Test: relative permittivity at various frequencies (dimensionless)
Conditions: Liquid, Frequency=0.001 MHz, Concentric Cylinder Capacitor

Cc1ccccc1 [toluene]
Conditions	relative permittivity
303.15 K, 312 kPa	2.37527 ± 0.00084
303.15 K, 1015 kPa	2.37634 ± 0.00084
303.15 K, 5058 kPa	2.38253 ± 0.00084
303.15 K, 10116 kPa	2.38999 ± 0.00084
303.15 K, 20221 kPa	2.40447 ± 0.00084
303.15 K, 30317 kPa	2.41824 ± 0.00086
303.15 K, 40408 kPa	2.43058 ± 0.00086
303.15 K, 50497 kPa	2.44313 ± 0.00086
303.15 K, 60603 kPa	2.45469 ± 0.00088
333.15 K, 402 kPa	2.31204 ± 0.00083
333.15 K, 995 kPa	2.3134 ± 0.00082
333.15 K, 5053 kPa	2.32081 ± 0.00082
333.15 K, 10114 kPa	2.32958 ± 0.00082
333.15 K, 20221 kPa	2.34637 ± 0.00082
333.15 K, 30317 kPa	2.36168 ± 0.00084
333.15 K, 40419 kPa	2.3756 ± 0.00084
333.15 K, 50510 kPa	2.38883 ± 0.00084
333.15 K, 60615 kPa	2.40129 ± 0.00086
363.15 K, 314 kPa	2.24824 ± 0.00081
363.15 K, 1010 kPa	2.2498 ± 0.00081
363.15 K, 5053 kPa	2.25867 ± 0.00081
363.15 K, 10108 kPa	2.26912 ± 0.00081
363.15 K, 10109 kPa	2.26918 ± 0.00081
363.15 K, 10111 kPa	2.26913 ± 0.00081
363.15 K, 20229 kPa	2.28839 ± 0.0008
363.15 K, 20231 kPa	2.28835 ± 0.0008
363.15 K, 20232 kPa	2.28831 ± 0.0008
363.15 K, 30317 kPa	2.30557 ± 0.00082
363.15 K, 30325 kPa	2.30571 ± 0.00082
363.15 K, 40408 kPa	2.32135 ± 0.00082
363.15 K, 50502 kPa	2.33608 ± 0.00084
363.15 K, 50510 kPa	2.33603 ± 0.00084
363.15 K, 60614 kPa	2.3499 ± 0.00084
363.15 K, 60624 kPa	2.34978 ± 0.00084
393.15 K, 1622 kPa	2.18753 ± 0.00077
393.15 K, 5063 kPa	2.19687 ± 0.00079
393.15 K, 5070 kPa	2.19705 ± 0.00079
393.15 K, 10114 kPa	2.20937 ± 0.00079
393.15 K, 10123 kPa	2.20955 ± 0.00079
393.15 K, 20223 kPa	2.23281 ± 0.00079
393.15 K, 20234 kPa	2.23259 ± 0.00079
393.15 K, 30331 kPa	2.2527 ± 0.00081
393.15 K, 40414 kPa	2.27067 ± 0.00081
